Target: Tyrosine-protein kinase BTK (Homo sapiens, UniProt Q06187)
Assay: Inhibition of human recombinant BTK

Sequence of Tyrosine-protein kinase BTK (Q06187 whole entry): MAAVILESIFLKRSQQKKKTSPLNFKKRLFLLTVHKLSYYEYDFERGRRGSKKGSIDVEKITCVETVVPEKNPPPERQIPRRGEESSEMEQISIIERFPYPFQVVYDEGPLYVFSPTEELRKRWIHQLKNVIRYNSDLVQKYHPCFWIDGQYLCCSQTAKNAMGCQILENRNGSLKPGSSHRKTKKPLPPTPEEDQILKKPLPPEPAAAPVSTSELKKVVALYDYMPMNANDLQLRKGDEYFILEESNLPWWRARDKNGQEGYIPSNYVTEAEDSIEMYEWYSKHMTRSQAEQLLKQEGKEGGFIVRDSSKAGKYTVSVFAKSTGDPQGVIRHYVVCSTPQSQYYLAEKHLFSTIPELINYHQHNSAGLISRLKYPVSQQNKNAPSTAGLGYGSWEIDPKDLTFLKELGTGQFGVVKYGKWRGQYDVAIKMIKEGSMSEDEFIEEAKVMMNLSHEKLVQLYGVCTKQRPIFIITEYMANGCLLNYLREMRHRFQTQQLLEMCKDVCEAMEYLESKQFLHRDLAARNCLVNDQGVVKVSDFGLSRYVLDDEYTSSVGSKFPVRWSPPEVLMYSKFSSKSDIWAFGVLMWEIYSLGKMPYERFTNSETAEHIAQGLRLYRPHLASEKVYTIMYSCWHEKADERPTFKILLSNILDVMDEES

IC50	Compound
461 nM	NC(=O)c1cc(-c2ccc(Cl)c(Cl)c2)cc2c1[nH]c1ccc(C(=O)N3CCOCC3)cc12
360 nM	COc1cccc(-c2cc(C(N)=O)c3[nH]c4ccc(C(=O)N5CCOCC5)cc4c3c2)c1
110 nM	CN1CCN(C(=O)c2ccc3[nH]c4c(C(N)=O)cc(-c5ccc(Cl)cc5)cc4c3c2)CC1
28 nM	COc1cccc(-c2ccc(C(N)=O)c3[nH]c4ccc(C(=O)N5CCN(C)CC5)cc4c23)c1
88 nM	CC(=O)Nc1cccc(-c2ccc(C(N)=O)c3[nH]c4ccc(C(=O)N5CCN(C)CC5)cc4c23)c1
29 nM	COc1ccc(-c2ccc(C(N)=O)c3[nH]c4ccc(C(=O)N5CCN(C)CC5)cc4c23)cc1
39 nM	CC(=O)Nc1ccc(-c2ccc(C(N)=O)c3[nH]c4ccc(C(=O)N5CCN(C)CC5)cc4c23)cc1
32 nM	COc1cccc(-c2ccc(C(N)=O)c3[nH]c4cc(C(=O)N5CCN(C)CC5)ccc4c23)c1
30 nM	CC(=O)Nc1cccc(-c2ccc(C(N)=O)c3[nH]c4cc(C(=O)N5CCN(C)CC5)ccc4c23)c1
55 nM	COc1ccc(-c2ccc(C(N)=O)c3[nH]c4cc(C(=O)N5CCN(C)CC5)ccc4c23)cc1
15 nM	CC(=O)Nc1ccc(-c2ccc(C(N)=O)c3[nH]c4cc(C(=O)N5CCN(C)CC5)ccc4c23)cc1
24 nM	Cc1ccccc1-c1ccc(C(N)=O)c2[nH]c3cc(C(=O)N4CCN(C)CC4)ccc3c12
144 nM	COc1ccccc1-c1ccc(C(N)=O)c2[nH]c3cc(C(=O)N4CCN(C)CC4)ccc3c12
38 nM	CN1CCN(C(=O)c2ccc3c(c2)[nH]c2c(C(N)=O)ccc(-c4cccc(Cl)c4)c23)CC1
71 nM	CNC(=O)c1cccc(-c2ccc(C(N)=O)c3[nH]c4cc(C(=O)N5CCN(C)CC5)ccc4c23)c1
59 nM	CN1CCN(C(=O)c2ccc3c(c2)[nH]c2c(C(N)=O)ccc(-c4ccc(Cl)cc4)c23)CC1

IC50	Compound
103 nM	CN1CCN(C(=O)c2ccc3c(c2)[nH]c2c(C(N)=O)ccc(-c4ccc(C(C)(C)C)cc4)c23)CC1
44 nM	CNC(=O)c1ccc(-c2ccc(C(N)=O)c3[nH]c4cc(C(=O)N5CCN(C)CC5)ccc4c23)cc1
127 nM	CN1CCN(C(=O)c2ccc3c(c2)[nH]c2c(C(N)=O)ccc(-c4ccc(Oc5ccccc5)cc4)c23)CC1
101 nM	CN1CCN(C(=O)c2ccc3c(c2)[nH]c2c(C(N)=O)ccc(-c4ccc(Cl)c(Cl)c4)c23)CC1
13 nM	CN1CCN(C(=O)c2ccc3c(c2)[nH]c2c(C(N)=O)ccc(-c4cccc(Cl)c4Cl)c23)CC1
6.9 nM	CN1CCN(C(=O)c2ccc3c(c2)[nH]c2c(C(N)=O)ccc(-c4cccc(F)c4F)c23)CC1
32 nM	Cc1c(Cl)cccc1-c1ccc(C(N)=O)c2[nH]c3cc(C(=O)N4CCN(C)CC4)ccc3c12
19 nM	Cc1c(N)cccc1-c1ccc(C(N)=O)c2[nH]c3cc(C(=O)N4CCN(C)CC4)ccc3c12
22 nM	CN1CCN(C(=O)c2ccc3c(c2)[nH]c2c(C(N)=O)ccc(-c4ccc(F)cc4F)c23)CC1
12 nM	CN1CCN(C(=O)c2ccc3c(c2)[nH]c2c(C(N)=O)ccc(-c4c(F)cccc4F)c23)CC1
7.2 nM	Cc1c(NC(=O)c2ccccc2)cccc1-c1ccc(C(N)=O)c2[nH]c3cc(C(=O)N4CCN(C)CC4)ccc3c12
3.8 nM	Cc1c(NC(=O)c2ccc(F)cc2)cccc1-c1ccc(C(N)=O)c2[nH]c3cc(C(=O)N4CCN(C)CC4)ccc3c12
3.5 nM	Cc1c(NC(=O)c2ccc(N(C)C)cc2)cccc1-c1ccc(C(N)=O)c2[nH]c3cc(C(=O)N4CCN(C)CC4)ccc3c12
12 nM	Cc1c(NC(=O)c2ccc(C(C)(C)C)cc2)cccc1-c1ccc(C(N)=O)c2[nH]c3cc(C(=O)N4CCN(C)CC4)ccc3c12
9.4 nM	CN1CCN(C(=O)c2ccc3c(c2)[nH]c2c(C(N)=O)ccc(-c4cccc(NC(=O)c5ccc(F)cc5)c4F)c23)CC1
39 nM	CN1CCN(C(=O)c2ccc3c(c2)[nH]c2c(C(N)=O)ccc(-c4cccc(NC(=O)c5ccc(F)cc5)c4)c23)CC1
